Source: US8859549B2, “Potassium channel modulators” (AbbVie, Inc., priority 2011, dated 2014)

Molecular target: T1, KCNQ 2/3 channels (Homo sapiens, UniProt O43525+O43526)
T1 construct: expressed in transfected cells; host or cells: HEK293
Assay: KCNQ 2/3 channel activation, thallium flux FLIPR assay (BTC-AM dye)
Assay type: cell-based
Settings: for Emax: HEK293, maximum response relative to the response of 10 μM retigabine (set at 100%), HEK293 KCNQ2/KCNQ3 cells, read-out: % MAX; for EC50: HEK293 cells stably expressing human KCNQ2 and KCNQ3 subunits, thallium-induced fluorescence, 4 min compound incubation
Protocol: The following example describes the assay that can be used to identify compounds that activate KCNQ 2/3 channels.
HEK293 cells stably expressing human KCNQ2 and KCNQ3 subunits were seeded in 96-well, black-walled, clear-bottomed, poly-D-lysine coated plates (BD Biosciences, Bedford, Mass.) at a density of 1×10^5 cells per well 24 hours before the assay. On the assay day, BTC-AM dye (Invitrogen, Carlsbad, Calif.) was loaded into the cells by replacing the cell culture medium with 55 μL/well of 3 μg/mL dye in DPBS. Dye loading was allowed to proceed for 2 hours at room temperature and then cells were washed twice with 50 μL/well of assay buffer (in mM: 10 HEPES pH 7.3, 5 glucose, 140 Na-gluconate, 2.5 K-gluconate, 3.6 Ca-gluconate, 2 MgSO4, 0.1 Ouabain) to remove unloaded dye. Cells were incubated in 50 μL of assay buffer before loading onto a FLIPR system (Molecular Devices, Sunnyvale, Calif.). Various concentrations of compounds to be assayed were added to the cells in 50 μL of assay buffer and incubated for 4 minutes. The fluorescence signal was initiated by adding 100 μL of assay buffer containing 6 mM TlNO3 and 10 mM K2SO4. Fluors were excited using the 488-nm line of an argon laser and emission was filtered using a 540±30 nm bandpass filter. Fluorescent signals were recorded for 3 minutes. Sums of the responses over basal responses were plotted versus concentrations of test compounds to obtain an EC50 value. The maximum response for each test compound was determined relative to the response produced by 10 μM retigabine. The maximum response of retigabine at 10 μM was set at 100%.

Work on `O=C(Cc1ccc(Cl)cc1)Nn1nc(-c2cccnc2)c2ccccc2c1=O` [Example 9, 2-(4-chlorophenyl)-N-[1-oxo-4-(pyridin-3-yl)phthalazin-2(1H)-yl]acetamide] yielded an Emax of 19.6%.
In the case of `O=C(Cc1cc(F)cc(F)c1)Nn1nc(-c2cccs2)c2ccccc2c1=O` [Example 10, 2-(3,5-difluorophenyl)-N-[1-oxo-4-(thiophen-2-yl)phthalazin-2(1H)-yl]acetamide], the Emax is reported as 137% and the EC50 is reported as 161 nM.
`O=C(Cc1ccc(Cl)cc1)Nn1nc(-c2cccs2)c2ccccc2c1=O` [Example 11, 2-(4-chlorophenyl)-N-[1-oxo-4-(thiophen-2-yl)phthalazin-2(1H)-yl]acetamide] was tested, and the Emax was 105% and the EC50 was 297 nM.
In the case of `O=C(C[C@@H]1C[C@@H]2C=C[C@H]1C2)Nn1nc(-c2cccs2)c2ccccc2c1=O` [Example 13, 2-[(1S,2S,4S)-bicyclo[2.2.1]hept-5-en-2-yl]-N-[1-oxo-4-(thiophen-2-yl)phthalazin-2(1H)-yl]acetamide], the Emax is reported as 138% and the EC50 is reported as 131 nM.
In the case of `Cc1ccsc1-c1nn(NC(=O)Cc2cc(F)cc(F)c2)c(=O)c2ccccc12` [Example 14, 2-(3,5-difluorophenyl)-N-[4-(3-methylthiophen-2-yl)-1-oxophthalazin-2(1H)-yl]acetamide], the Emax is reported as 146% and the EC50 is reported as 296 nM.
In the case of `Cc1ccsc1-c1nn(NC(=O)Cc2ccc(Cl)cc2)c(=O)c2ccccc12` [Example 15, 2-(4-chlorophenyl)-N-[4-(3-methylthiophen-2-yl)-1-oxophthalazin-2(1H)-yl]acetamide], the Emax is reported as 124% and the EC50 is reported as 858 nM.
With `Cc1ccsc1-c1nn(NC(=O)C[C@@H]2C[C@@H]3C=C[C@H]2C3)c(=O)c2ccccc12` [Example 17, 2-[(1S,2S,4S)-bicyclo[2.2.1]hept-5-en-2-yl]-N-[4-(3-methylthiophen-2-yl)-1-oxophthalazin-2(1H)-yl]acetamide] the Emax was 139% and the EC50 was 209 nM.
In the case of `O=C(Cc1cc(F)cc(F)c1)Nn1nc(-c2ccccn2)c2ccccc2c1=O` [Example 18, 2-(3,5-difluorophenyl)-N-[1-oxo-4-(pyridin-2-yl)phthalazin-2(1H)-yl]acetamide], the Emax is reported as 112% and the EC50 is reported as 2810 nM.
With `O=C(Cc1cc(F)cc(F)c1)Nn1nc(N2CCCC2)c2ccccc2c1=O` [Example 20, 2-(3,5-difluorophenyl)-N-[1-oxo-4-(pyrrolidin-1-yl)phthalazin-2(1H)-yl]acetamide] the Emax was 145% and the EC50 was 214 nM.
`O=C(Cc1ccc(Cl)cc1)Nn1nc(N2CCCC2)c2ccccc2c1=O` [Example 21, 2-(4-chlorophenyl)-N-[1-oxo-4-(pyrrolidin-1-yl)phthalazin-2(1H)-yl]acetamide] showed an Emax of 136% and an EC50 of 198 nM.
Work on `O=C(Cc1cc(F)cc(F)c1)Nn1nc(N2CCCCC2)c2ccccc2c1=O` [Example 22, 2-(3,5-difluorophenyl)-N-[1-oxo-4-(piperidin-1-yl)phthalazin-2(1H)-yl]acetamide] yielded an Emax of 134% and an EC50 of 87.5 nM.
`O=C(Cc1ccc(Cl)cc1)Nn1nc(N2CCCCC2)c2ccccc2c1=O` [Example 24, 2-(4-chlorophenyl)-N-[1-oxo-4-(piperidin-1-yl)phthalazin-2(1H)-yl]acetamide] showed an Emax of 140% and an EC50 of 84.2 nM.
Work on `CC(C)(CC(=O)Nn1nc(-c2ccc(Cl)nc2)c2ccccc2c1=O)c1ccccc1` [Example 27, N-[4-(6-chloropyridin-3-yl)-1-oxophthalazin-2(1H)-yl]-3-methyl-3-phenylbutanamide] yielded an Emax of 134% and an EC50 of 261 nM.
`O=C(Cc1cc(F)cc(F)c1)Nn1nc(Cc2ccc(Cl)nc2)c2ccccc2c1=O` [Example 31, N-{4-[(6-chloropyridin-3-yl)methyl]-1-oxophthalazin-2(1H)-yl}-2-(3,5-difluorophenyl)acetamide] was tested, and the Emax was 72.1% and the EC50 was 330 nM.
`O=C(Cc1ccc(Cl)cc1)Nn1nc(Cc2ccc(Cl)nc2)c2ccccc2c1=O` [Example 32, 2-(4-chlorophenyl)-N-{4-[(6-chloropyridin-3-yl)methyl]-1-oxophthalazin-2(1H)-yl}acetamide] showed an Emax of 46.2% and an EC50 of 148 nM.
In the case of `CC(C)(CC(=O)Nn1nc(N2CCOCC2)c2ccccc2c1=O)c1ccccc1` [Example 33, 3-methyl-N-[4-(morpholin-4-yl)-1-oxophthalazin-2(1H)-yl]-3-phenylbutanamide], the Emax is reported as 131% and the EC50 is reported as 1590 nM.
`CN(Cc1ccccc1)c1nn(NC(=O)Cc2ccc(Cl)cc2)c(=O)c2ccccc12` [Example 36, N-{4-[benzyl(methyl)amino]-1-oxophthalazin-2(1H)-yl}-2-(4-chlorophenyl)acetamide] gave an Emax of 105% and an EC50 of 221 nM.
With `O=C(Cc1cc(F)cc(F)c1)Nn1nc(Oc2ccccc2)c2ccccc2c1=O` [Example 38, 2-(3,5-difluorophenyl)-N-(1-oxo-4-phenoxyphthalazin-2(1H)-yl)acetamide] the Emax was 122% and the EC50 was 31.8 nM.
For `NCc1nn(NC(=O)Cc2ccc(Cl)cc2)c(=O)c2ccccc12` [Example 42, N-[4-(aminomethyl)-1-oxophthalazin-2(1H)-yl]-2-(4-chlorophenyl)acetamide], the Emax was 8.66%.
With `CC(C)(CC(=O)Nn1nc(-c2ccnc(Cl)c2)c2ccccc2c1=O)c1ccccc1` [Example 48, N-[4-(2-chloropyridin-4-yl)-1-oxophthalazin-2(1H)-yl]-3-methyl-3-phenylbutanamide] the Emax was 133% and the EC50 was 389 nM.
`O=C(Cc1ccc(Cl)cc1)Nn1nc(-c2ccnc(Cl)c2)c2ccccc2c1=O` [Example 49, 2-(4-chlorophenyl)-N-[4-(2-chloropyridin-4-yl)-1-oxophthalazin-2(1H)-yl]acetamide] was tested, and the Emax was 107% and the EC50 was 383 nM.
`CN(Cc1ccccc1)c1nn(NC(=O)CC(C)(C)c2ccccc2)c(=O)c2ccccc12` [Example 52, N-{4-[benzyl(methyl)amino]-1-oxophthalazin-2(1H)-yl}-3-methyl-3-phenylbutanamide] showed an Emax of 185% and an EC50 of 102 nM.
`CN(Cc1ccccc1)c1nn(NC(=O)Cc2cc(F)cc(F)c2)c(=O)c2ccccc12` [Example 53, N-{4-[benzyl(methyl)amino]-1-oxophthalazin-2(1H)-yl}-2-(3,5-difluorophenyl)acetamide] was tested, and the Emax was 147% and the EC50 was 132 nM.
`O=C(Cc1cc(F)cc(F)c1)Nn1nc(Sc2ccccc2)c2ccccc2c1=O` [Example 57, 2-(3,5-difluorophenyl)-N-[1-oxo-4-(phenylsulfanyl)phthalazin-2(1H)-yl]acetamide] gave an Emax of 116% and an EC50 of 38.1 nM.
Compound `O=C(Cc1ccc(Cl)cc1)Nn1nc(Sc2ccccc2)c2ccccc2c1=O` [Example 58, 2-(4-chlorophenyl)-N-[1-oxo-4-(phenylsulfanyl)phthalazin-2(1H)-yl]acetamide] has an Emax of 120% and an EC50 of 82.6 nM.
Compound `CC1CN(c2nn(NC(=O)Cc3cc(F)cc(F)c3)c(=O)c3ccccc23)CC(C)O1` (stereo not drawn) [Example 60, 2-(3,5-difluorophenyl)-N-[4-(2,6-dimethylmorpholin-4-yl)-1-oxophthalazin-2(1H)-yl]acetamide] has an Emax of 105% and an EC50 of 474 nM.
`CC1CN(c2nn(NC(=O)CC(C)(C)c3ccccc3)c(=O)c3ccccc23)CC(C)O1` (stereo not drawn) [Example 61, N-[4-(2,6-dimethylmorpholin-4-yl)-1-oxophthalazin-2(1H)-yl]-3-methyl-3-phenylbutanamide] showed an Emax of 123% and an EC50 of 228 nM.
With `CC1CN(c2nn(NC(=O)Cc3ccc(Cl)cc3)c(=O)c3ccccc23)CC(C)O1` (stereo not drawn) [Example 62, 2-(4-chlorophenyl)-N-[4-(2,6-dimethylmorpholin-4-yl)-1-oxophthalazin-2(1H)-yl]acetamide] the Emax was 85.8% and the EC50 was 369 nM.
`CCOC(=O)c1nn(NC(=O)Cc2ccc(Cl)cc2)c(=O)c2ccccc12` [Example 63, ethyl 3-{[(4-chlorophenyl)acetyl]amino}-4-oxo-3,4-dihydrophthalazine-1-carboxylate] gave an Emax of 64.8% and an EC50 of 862 nM.
`O=C(Cc1ccc(Cl)cc1)Nn1nc(C(=O)O)c2ccccc2c1=O` [Example 65, 3-{[(4-chlorophenyl)acetyl]amino}-4-oxo-3,4-dihydrophthalazine-1-carboxylic acid] was tested, and the Emax was 30.1%.
Compound `O=C(CC1CCOC1)Nn1nc(N2CCOCC2)c2ccccc2c1=O` (stereo not drawn) [Example 66, N-[4-(morpholin-4-yl)-1-oxophthalazin-2(1H)-yl]-2-(tetrahydrofuran-3-yl)acetamide] has an Emax of 3.89%.
With `O=C(CC1CCOC1)Nn1nc(-c2ccnc(Cl)c2)c2ccccc2c1=O` (stereo not drawn) [Example 67, N-[4-(2-chloropyridin-4-yl)-1-oxophthalazin-2(1H)-yl]-2-(tetrahydrofuran-3-yl)acetamide] the Emax was 6.78%.
With `O=C(CC1(O)CCCCC1)Nn1nc(-c2ccnc(Cl)c2)c2ccccc2c1=O` [Example 71, N-[4-(2-chloropyridin-4-yl)-1-oxophthalazin-2(1H)-yl]-2-(1-hydroxycyclohexyl)acetamide] the Emax was 34%.
